{"source": "patent US12024736B2", "about": "“Method for detecting l-serine based on Escherichia coli cysteine desulfurase” (priority 2021, dated 2024)", "assay_type_in_all_cases": "biochemical", "key": {"[1]": {"molecular_target": "T1, E. coli cysteine desulfurase (Escherichia coli, UniProt P0A6B7, P222S)", "T1 construct": "C-terminal histidine stretch (HHHHHH); made in house; host or cells: E. coli (IscA-/SufA- double-deficient strain is mentioned in the summary)", "assay": "Anti-interference of the detection method for D-serine, cycloserine and serine derivatives"}, "[2]": {"molecular_target": "T1, E. coli cysteine desulfurase", "assay": "Determination of the ability to resist other L-amino acids (colour after incubation with enzyme)", "settings": "4 mM amino acid, equal volume of enzyme, 37° C., 250 rpm, 2 h, naked eye"}, "[3]": {"molecular_target": "T1, E. coli cysteine desulfurase", "assay": "Quantitative detection of L-serine, absorbance at 528 nm (reaction time and linear range)", "settings": "L-serine standard with reaction buffer, 25° C.", "method": "B. Reaction buffer: 40 mM Tris-HCl buffer (pH 9.0), 100 μM E. coli cysteine desulfurase, and 0.4 mM L-cysteine.\nL-serine to be tested was mixed with the reaction buffer in equal volumes, and incubated at 25° ° C. for different times; the absorbance was measured at a wavelength of 528 nm; a curve was plotted with the time as the horizontal axis and the absorbance value at 528 nm as the longitudinal axis.\nThe L-serine standard solution was diluted to three concentrations, respectively: 0.50 mM, 1.00 mM, and 2.00 mM. Each serial dilution of the standard solution and the unknown sample (100 μL) were each mixed with 100 μL of reaction buffer, incubated at room temperature (25° C.) for 2 h, and the absorbance at 528 nm was measured for sample and standard tubes, respectively.\nA standard curve was plotted with the concentration of the standard solution as the abscissa and the absorbance measured at a wavelength of 528 nm as the ordinate, and the curve was fitted to obtain a curve equation and an R^2 value."}}, "data": [{"molecule": "N[C@H](CO)C(=O)O", "note": "[D-serine]", "values": [{"measurement": "anti-interference ability of the detection method", "setting": "[1]", "result": "good anti-interference ability"}]}, {"molecule": "N[C@@H](CO)C(=O)O", "note": "[L-serine]", "values": [{"measurement": "colour after incubation with E. coli cysteine desulfurase", "setting": "[2]", "result": "red"}, {"measurement": "incubation time at which the absorption peak at 528 nm reaches the highest", "setting": "[3]", "result": 2, "unit": "h"}]}, {"molecule": "N[C@@H]1CON=C1O", "note": "[cycloserine]", "values": [{"measurement": "anti-interference ability of the detection method", "setting": "[1]", "result": "good anti-interference ability"}]}]}
